Data from US11371994B2, “Phosphorylated Akt-specific capture agents, compositions, and methods of using and making” (California Institute of Technology, priority 2013, dated 2022).
Square brackets hold non-standard residues; d marks the D form. Ends that are not written are not given here. dPra = C#CC[C@@H](N)C(=O)O

Target: T1, Akt (Homo sapiens, UniProt P31751)
T1 construct: endogenous in cells; host or cells: OVCAR3
Assay: OVCAR3 lysate pull-down (immunoprecipitation) assay
Format: binding
Conditions: eluents stained with pan-Akt antibody
Protocol: OVCAR3 cells (ATCC) were grown in RPMI-1640 media containing 20% fetal bovine serum. Passage three cells were grown to ˜80% confluence. Cells were lysed with lysis buffer (10 mM Tris-Cl (pH=7.5), 100 mM NaCl, 1% (v/v) Triton X-100, 0.1% SDS (w/v), 0.5% deoxycholate, 1 mM DTT, 1 mM EDTA, 1× PhosStop phosphatase inhibitors (Roche), 1× Complete protease inhibitors (Roche)) and the amount of protein measured using BCA Protein Assay Kit (Pierce Biotechnologies, Inc). Streptavidin-agarose resin solution (EMD) was swelled in TBST (25 mM tris chloride, pH=7.5, 150 mM NaCl, 0.05% Tween-20). Each of the biotinylated ligands was immobilized on the Streptavidin-agarose resin by adding 7.2 μL of 1 mM ligand stock (DMSO) to 10 μL of the swelled streptavidin-agarose resin. For the blank control, the resin was treated with 7.2 μL of 1 mM biotinylated acyl glycine. […] After shaking overnight at 4° C., 50 μM D-biotin was added to the resin to block any remaining sites. The resin was washed with TBST five times, for fifteen minutes each. The resin was then swelled in binding buffer for two hours. To each of the immobilized ligands, 200 μL OVCAR3 cell lysate (1.9 mg/ml) was added. The tubes were shaken at 4° C. for 18 hours. The beads were extensively washed, three times for fifteen minutes in binding buffer, three times (fifteen minutes) in TBST, and three times (fifteen minutes) in TBS to remove unbound proteins. The resin bound proteins were eluted by adding 40 μL of 2×SDS-PAGE sample loading buffer (BioRad) and heating at 95° C. for five minutes. A 1:10 diluted sample of lysate in sample loading buffer was prepared by mixing 1 μL of the sample with 9 μL sample loading buffer and denaturing the sample by heating at 95° C. for five minutes. 10 μL of each sample was loaded on a 12% SDS-PAGE gels (BioRad) and run for 80 minutes at 110 volts. Three identical gels were loaded and run at the same time. One gel was used for Coomassie staining with Coomassie Fluor Orange Protein Gel Stain (Molecular Probes) following the manufacturer's protocol. The two other gels were transferred to nitrocellulose membranes by the semidry transfer method, blocked for two hours at 4° C. with 5% non-fat milk, and treated overnight at 4° C. with a 1:1000 dilution of pan-Akt rabbit monoclonal antibody (Cell Signaling Technology) and a 1:1000 dilution of pS473 Akt rabbit monoclonal antibody (Cell Signaling Technology), respectively, in 0.5% non-fat milk. The membranes were washed and treated for an hour with a 1:10,000 dilution of monoclonal mouse anti-rabbit-HRP secondary antibody (Cell Signaling Technology) in 0.5% milk. After five washes of five minutes each with TBST and one wash of five minutes with TBS, the blots were developed with West Dura ECL substrate (Thermo Scientific) and imaged on film.

T1 sequence (P31751 whole entry): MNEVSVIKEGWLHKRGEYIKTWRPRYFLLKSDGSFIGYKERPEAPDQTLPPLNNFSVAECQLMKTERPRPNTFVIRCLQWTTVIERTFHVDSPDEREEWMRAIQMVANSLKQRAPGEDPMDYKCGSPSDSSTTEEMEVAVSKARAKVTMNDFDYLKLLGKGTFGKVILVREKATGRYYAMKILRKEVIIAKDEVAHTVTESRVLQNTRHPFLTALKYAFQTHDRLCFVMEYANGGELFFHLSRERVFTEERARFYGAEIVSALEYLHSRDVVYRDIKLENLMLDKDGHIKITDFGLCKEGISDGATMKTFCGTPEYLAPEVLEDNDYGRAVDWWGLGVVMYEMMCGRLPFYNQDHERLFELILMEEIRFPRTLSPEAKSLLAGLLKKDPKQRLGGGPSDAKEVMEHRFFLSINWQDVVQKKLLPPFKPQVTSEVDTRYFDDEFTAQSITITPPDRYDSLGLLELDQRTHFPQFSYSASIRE

immunoprecipitation of Akt from OVCAR3 cell lysate	Molecule
did not show any Akt pulldown	Bi5: biligand candidate with hnGii-(D-Pra) as the 2° peptide arm (peptide 1 [dPra][dW][dK][dV][dK][dL]; peptide 2 [dH][dN]G[dI][dI][dPra]; not fully specified (bridges))
did not show any Akt pulldown	Bi6: biligand candidate with hnGGd-(D-Pra) as the 2° peptide arm (peptide 1 [dPra][dW][dK][dV][dK][dL]; peptide 2 [dH][dN]GG[dD][dPra]; not fully specified (bridges))
immunoprecipitate Akt2 from OVCAR3 cells	N-tri2: N terminal triligand candidate: (D-Pra)-ssGry clicked to anchor-3N (peptide 1 [dW][dK][dV][dK][dL]; peptide 2 [dH][dN]G[dY][dF]; peptide 3 [dPra][dS][dS]G[dR][dY]; not fully specified (bridges); also: arms clicked by triazole to anchor-3N scaffold (not listed))

Molecule	immunoprecipitation of Akt from OVCAR3 cell lysate
CC(=O)NC(CCCCn1cc(C[C@@H](NC(C)=O)C(=O)N[C@H](Cc2c[nH]c3ccccc23)C(=O)N[C@H](CCCCN)C(=O)N[C@@H](C(=O)N[C@H](CCCCN)C(=O)N[C@H](CC(C)C)C(N)=O)C(C)C)nn1)C(=O)NCCOCCOCCOCCC(=O)NCCNC(=O)CCCC[C@@H]1SC[C@@H]2NC(=O)N[C@@H]21 (stereo partly shown) [mono-L]	sufficient selectivity to immunoprecipitate Akt from OVCAR3 cancer cell lysate

Same assay, conditions: eluents stained with pan-Akt antibody; listed as Bi2

immunoprecipitation of Akt from OVCAR3 cell lysate	Molecule
best candidate	CC(=O)NC(CCCCn1cc(C[C@@H](NC(=O)CCCCn2cc(C[C@@H](NC(=O)[C@@H](Cc3ccccc3)NC(=O)[C@@H](Cc3ccc(O)cc3)NC(=O)CNC(=O)[C@@H](CC(N)=O)NC(=O)[C@H](N)Cc3c[nH]cn3)C(=O)O)nn2)C(=O)N[C@H](Cc2c[nH]c3ccccc23)C(=O)N[C@H](CCCCN)C(=O)N[C@@H](C(=O)N[C@H](CCCCN)C(=O)N[C@H](CC(C)C)C(N)=O)C(C)C)nn1)C(=O)NCCOCCOCCOCCC(=O)NCCNC(=O)CCCC[C@@H]1SC[C@@H]2NC(=O)N[C@@H]21 (stereo partly shown) [bi-L]

Same assay, conditions: eluents stained with pan-Akt antibody; listed as biligand

Molecule	immunoprecipitation of Akt from OVCAR3 cell lysate
CC(=O)NC(CCCCn1cc(C[C@@H](NC(=O)CCCCn2cc(C[C@@H](NC(=O)[C@@H](Cc3ccccc3)NC(=O)[C@@H](Cc3ccc(O)cc3)NC(=O)CNC(=O)[C@@H](CC(N)=O)NC(=O)[C@H](N)Cc3c[nH]cn3)C(=O)O)nn2)C(=O)N[C@H](Cc2c[nH]c3ccccc23)C(=O)N[C@H](CCCCN)C(=O)N[C@@H](C(=O)N[C@H](CCCCN)C(=O)N[C@H](CC(C)C)C(N)=O)C(C)C)nn1)C(=O)NCCOCCOCCOCCC(=O)NCCNC(=O)CCCC[C@@H]1SC[C@@H]2NC(=O)N[C@@H]21 (stereo partly shown) [bi-L]	higher selectivity to immunopreciptate Akt from OVCAR3 cell lysate

Target: Akt2 (Homo sapiens, UniProt P31751)
Sequence (P31751 whole entry): as above
Assay: Single component ELISA, PCC agent as capture or detection agent (relative affinity)
Format: binding
Design: purchased Abcam
Conditions: relative affinity; read-out: affinity by single-component immunoassay
Description: FIG. 23: A. ELISA assays in which the PCC Agents are utilized as either as surface-localized capture agents (for N-tL, C-tL) or as the detection agent (for mono-L, bi-L). Such assays provide relative affinity measurements, which are given as EC50 values in the key. […] C. C-tL distinguishes the full length Akt2 from isoform proteins Akt1 and Akt3. D. The 32 amino acid long C terminal fragment from Akt2, Akt1 and Akt3. The hydrophobic motif is highlighted in blue. pS refers to phospho-serine. […] F. Selectivity assays: Biotinylated ligands or biotinylated pS473 antibody is immobilized on streptavidin-agarose and treated with OVCAR3 cell lysate. The eluents are stained with a pan-Akt antibody or pS473 Akt antibody.
1.25 μM biotinylated ligand was prepared by diluting the 1 mM stock in binding buffer (25 mM tris chloride, pH=7.4, 150 mM NaCl, 0.1% BSA, 0.05% Tween 20). The prepared ligand solution or 0.125% DMSO in buffer (buffer control) was immobilized on a High Capacity Streptavidin 96 well plate (Thermo Scientific). After washing away the excess ligand, the plate was blocked overnight with 1% BSA/25 mM tris chloride, pH=7.4/150 mM NaCl, 0.05% Tween 20. 2.5 μM solutions of the His6 (SEQ ID NO:28) tagged target phosphopeptide epitope Akt2 amino acids 450-481, His6 (SEQ ID NO:28) tagged Akt1 amino acids 449-480, His6 (SEQ ID NO:28) tagged Akt3 amino acids 448-479 were added to each of the wells. Following three washes with the binding buffer, the plate was treated for an hour with a 1:1000 dilution of anti His6 (SEQ ID NO:28) mouse monoclonal antibody. A 1:10,000 dilution of goat anti mouse antibody-Horse Radish Peroxide conjugate in binding buffer was added to the wells. The plates were washed four times, five minutes each, with 0.05% Tween 20/TBS (25 mM tris chloride, pH=7.5, 150 mM NaCl) and once with TBS (25 mM tris chloride, pH=7.5, 150 mM NaCl). Color was developed by adding TMB substrate (KPL) to each well. The reaction was quenched with 0.5 M H2SO4. The A450 measured on a 96-well plate reader. The Net A450 was obtained by subtracting the absorbance value for the blank control (no immobilized ligand) from each of the triplicate values obtained for the ligand-epitope interaction. The selectivity assay with full length His6 (SEQ ID NO:28) tagged Akt1, Akt2 and Akt3 was performed following the same protocol, using 25 nM protein instead of 2.5 μM His6 tagged peptide epitope.

EC50 [nM]	Molecule
~1000	CC(=O)NC(CCCCn1cc(C[C@@H](NC(=O)CCCCn2cc(C[C@@H](NC(=O)[C@@H](Cc3ccccc3)NC(=O)[C@@H](Cc3ccc(O)cc3)NC(=O)CNC(=O)[C@@H](CC(N)=O)NC(=O)[C@H](N)Cc3c[nH]cn3)C(=O)O)nn2)C(=O)N[C@H](Cc2c[nH]c3ccccc23)C(=O)N[C@H](CCCCN)C(=O)N[C@@H](C(=O)N[C@H](CCCCN)C(=O)N[C@H](CC(C)C)C(N)=O)C(C)C)nn1)C(=O)NCCOCCOCCOCCC(=O)NCCNC(=O)CCCC[C@@H]1SC[C@@H]2NC(=O)N[C@@H]21 (stereo partly shown) [bi-L]
~3000	CC(=O)NC(CCCCn1cc(C[C@@H](NC(C)=O)C(=O)N[C@H](Cc2c[nH]c3ccccc23)C(=O)N[C@H](CCCCN)C(=O)N[C@@H](C(=O)N[C@H](CCCCN)C(=O)N[C@H](CC(C)C)C(N)=O)C(C)C)nn1)C(=O)NCCOCCOCCOCCC(=O)NCCNC(=O)CCCC[C@@H]1SC[C@@H]2NC(=O)N[C@@H]21 (stereo partly shown) [mono-L]

Tested on: mouse anti His6 antibody and anti mouse-alkaline phosphatase
Assay: Elimination of peptide binders to antibody, on-bead BCIP colour test
Format: binding
Conditions: colour intensity of beads; clear beads are not background binders
Protocol: Since a preclear screen was not performed against the mouse-Anti His6 antibody and the anti-mouse-alkaline phosphatase antibody, to eliminate peptide binders to the antibodies, all the dark colored peptide hits obtained in the earlier target screen were synthesized on Tentagel-S—NH2 resin. 10 beads of each sequence was taken in spinnex tubes, equilibrated in binding buffer, and then treated with a 1:1000 diluted solution of mouse anti His6 antibody (Abcam) for an hour at 4° C. Following three five minute washes with the binding buffer, a 1:10,000 diluted solution of anti mouse-alkaline phosphatase was added and the shaken for one hour at 4° C. The beads were washed three times for five minutes each with wash buffer 3, followed by three five minute washes with wash buffer 4. The beads were then developed in BCIP solution for thirty minutes and quenched with 0.1 N HCl. The color intensity of the different sequences is recorded in Table 5, along with the probability that the sequence is a binder to the protein and not a background binder (clear beads). The probability arises from the poor resolution of certain amino acid standards in the Edman sequencer during sequencing the hits from the N terminal triligand target screen.

Molecule	Color
SEQ ID NO: 53: on-bead peptide D-Pra-sfrrf, hit of N-tL screen ([dPra][dS][dF][dR][dR][dF])	light
SEQ ID NO: 58: on-bead peptide D-Pra-rriyy, hit of N-tL screen ([dPra][dR][dR][dI][dY][dY])	dark
SEQ ID NO: 64: on-bead peptide D-Pra-rdrfr, hit of N-tL screen ([dPra][dR][dD][dR][dF][dR])	No color
SEQ ID NO: 65: on-bead peptide D-Pra-rnrfr, hit of N-tL screen ([dPra][dR][dN][dR][dF][dR])	medium

Results, then the molecule that gave them:

Color	Molecule
No color	(D-Pra)-ssGry ([dPra][dS][dS]G[dR][dY]) [SEQ ID NO: 14, on-bead 3° peptide hit of N-tL screen]
No color	(D-Pra)-yyrfG ([dPra][dY][dY][dR][dF]G) [SEQ ID NO: 13, on-bead 3° peptide hit of N-tL screen]
light	SEQ ID NO: 52: on-bead peptide D-Pra-yvyrf, hit of N-tL screen ([dPra][dY][dV][dY][dR][dF])
light	SEQ ID NO: 60: on-bead peptide D-Pra-kfqfr, hit of N-tL screen ([dPra][dK][dF][dQ][dF][dR])
light	SEQ ID NO: 61: on-bead peptide D-Pra-lfqfr, hit of N-tL screen ([dPra][dL][dF][dQ][dF][dR])
light	SEQ ID NO: 62: on-bead peptide D-Pra-kftfr, hit of N-tL screen ([dPra][dK][dF][dT][dF][dR])
light	SEQ ID NO: 63: on-bead peptide D-Pra-lftfr, hit of N-tL screen ([dPra][dL][dF][dT][dF][dR])
